Here are results for seven substances from patent publication US5783558A, “Parathormone fragments, their preparation and medicaments containing these” (Boehringer Mannheim GmbH, priority 1992, dated 1998).

One experiment relates to UMR 106 cells. The experiment can be described thus: DNA synthesis capacity of PTH(3-X) fragments on UMR 106 cells ([3H]-thymidine incorporation). The experiment is classed as cell-based. The source says:
DNA synthesis capacity on PTH-(3-X) fragments
An increased DNA synthesis capacity on UMR 106 cells was also observed with fragments, the N-terminus of which was shortened by two amino acids. An action maximum was again present when the chain length lay between 34 and 36 amino acids (cf. Tab. 6). This finding is surprising since it is known that a deletion of the amino acids +1 or +1 and +2 leads to the loss of the cAMP induction, combined with the loss of the calcium-mobilising properties of the PTH. An anabolic (mitogenic) activity of N-terminal shortened PTH fragments has hitherto not been described.

The subject of another experiment is rats. Put plainly: Ca retention (Ca balance) in growing rats. The conditions noted are these: for Ca retention (mg per day) average value / Ca retention % increase: male CD rats, daily subcutaneous, 10 days; for Ca retention (mg per day) average value: equimolar doses, balance measured during last 3 days; for Ca retention in words: rats, compared with hPTH(1-n), n=34, 37, 38; for Ca retention % increase: versus control. The experiment is classed as in vivo, rat. More on the design: Ca retention (mg per day) average value: dose or concentration left out as unconfirmed. The protocol: Determination of the action of various PTH fragments on the Ca retention in the case of rats.
The measurement of the Ca balance in growing rats is a suitable model to test in vivo the effectiveness of a systemically administered substance on the bone metabolism. In the case of the Ca balance, the Ca flows in and out of the body are measured and the Ca retention (balance) calculated therefrom. It is thereby taken into account that the bones store about 99% of the body calcium, whereas the plasma calcium level remains constant. The amount of calcium retained in the body from the nutrition can, therefore, be regarded as proportional to the growth in the bone mass.
As experimental animals for the investigations, there served male CD rats which, at the beginning of the experiment, were 10 weeks old and weighed 250-300 g. The experimental animals were kept individually in commercially-available metabolic cages. An automatic separation of faeces and urine took place in the metabolic cages. Both fractions were collected quantitatively in collection containers and could be analyzed separately from one another.
As feed there served a standard diet for rats of meal-like consistency which was pasted with aqua dist. in the ratio of 1:1. The daily provided amount of feed was so adapted to the feed requirement of the animals in the sense of a so-called "group feedings" that they were completely eaten by all animals. The daily food ration amounted to 20 g (wet feed). Aqua dist. was offerred to the animals ad libitum.
All test substances were injected daily subcutaneously in equimolar doses (corresponding to […] hPTH(1-34)×kg^-1 ×day^-1), over 10 days. Of this, the first 7 days served for the adaptation of the animals, whereas the measurement of the Ca balance took place during the last 3 days.
The Ca intake was calculated via the amount of feed taken up and the experimentally determined Ca content of the feed. For this purpose, from the feed batch of each day, an aliquot was dried to constant weight and the water content determined from the comparison of wet and dry weight. Subsequently, 2×500 mg of the dried feed was digested with a laboratory microwave apparatus in conc. acids as follows: To 500 mg of dried feed were successively pipetted 3 ml HNO3 (conc.), 1 ml HCl (conc.) and 1 ml H2 O2 (30%). After the subsidence of the spontaneous oxidation reaction (foaming up), there followed the digestion pressure-controlled in closed digestion containers of Teflon PFA. The pressure/time steps were thereby successively following passed through: 40 psi (276 kpa), 5 min; 80 psi (552 kPa), 5 min; 150 psi ([…]); 10 min. To the cooled digest were then again added 2 ml H 2 O2 (30%) in order to test the completeness of the digestion reaction (no more foaming up).The digest was made up with a 1% lanthanum nitrate solution (v/v in 0.3% HCl) ad 100 ml. For the measurement of the Ca content on a flame atom absorption spectrometer (AAS), the samples were again dilute 1:100 with 1% lanthanum nitrate solution. The Ca intake was then calculated from the taken-up amount of feed and the measured water and Ca content.
The Ca loss via the faeces was then determined analogously to the Ca intake: Determination of the water content, acidic digestion in the microwave apparatus under the same conditions and subsequent measurement of the Ca content on the AAS.
In the collection container for the urine was placed 2 ml 10% HCl in order to prevent a precipitation of urate. After the end of the experiment, the urine volume was determined by weighing and subsequently an aliquot thereof diluted with 1% lanthanum nitrate solution (v/v in 0.3% HCl) in the ratio of 1:100. The determination of the Ca content of the samples took place on the AAS.

For experiment [1], the system named is sterna organ cultures. Put plainly: Mitogeneity on sterna organ cultures. The conditions noted are these: n=4. The experiment is classed as cell-based. The protocol:
Mitogeneity on sterna organ cultures
The mitogeneity of the new fragments was tested in organ cultures from sterna and it was ascertained that this activity was more strongly marked than in the case of the known fragments hPTH(1-34) and hPTH(1-38)(cf. Tab. 2).

The next experiment relates to ROS 17/2.8 cells. Put plainly: DNA synthesis capacity on ROS 17/2.8 cells ([3H]-thymidine incorporation). The experiment is classed as cell-based. The conditions noted are these: for DNA synthesis E/C / [^3 H]-thymidine incorporation (cpm): hPTH(1-X) 100 nM, ROS/2.8 cells. The protocol: DNA synthesis capacity on ROS 17/2.8 cells
The DNA synthesis capacity was measured on ROS 17/2.8 cells. […] Tab. 3: DNA synthesis hPTH(1-X), 100 nM, ROS/2.8 cells
(Incorporation of labelled thymidine or its analogues reports DNA synthesis.)

Experiment [2] concerns sterna organ cultures. The experiment can be described thus: cAMP stimulation on sterna organ cultures. The conditions noted are these: for pMol cAMP: 100 nm inductor, n=4; for Induction of cAMP formation in words: compared with PTH(1-34). The experiment is classed as cell-based. The method, then:
(§1) In organ cultures from sterna, as well as on membrane fractions from pigs' kidneys was measured the induction of the cAMP formation by various PTH peptides. […] This is of importance since the catabolic, i.e. calcium-mobilising properties of PTH are, as is known, involved with an increase of the cAMP (Schluter et al. (1989), J. Biol. Chem. 264, 19:11087-11092; Lowik et al., (1988), Calcif Tissue Int. 43:7-18). These findings are plausible and, therefore, support the above-mentioned findings which show an increase of the anabolic properties of the peptide in the case of a chain length between 35 and 36 amino acids.
For orientation: Cyclic AMP is a second messenger, typically raised through Gs and lowered through Gi signalling.

Experiment [3] deals with membrane fractions from pigs' kidneys. The experiment can be described thus: cAMP stimulation on porcine kidney membrane. The experiment is classed as biochemical, pig. The conditions noted are these: for Induction of cAMP formation in words: membrane fractions from pigs' kidneys, compared with PTH(1-34); for pMol cAMP/mg protein ± SEM: porcine kidney membrane, n=3. The protocol: as §1

Consider “PTH (3-34): PTH fragment, N-terminus shortened by two amino acids, positions 3-34 (SEIQLMHNLGKHLNSMERVEWLRKKLQDVHNF; Parathyroid hormone; UniProt P01270 34-65, looked up, fragment)”, for which, in the experiment on UMR 106 cells (PTH(3-X) 100 nM), the “DNA synthesis E/C” value amounted to 1.9 ± 0.12 and the “[^3 H]-thymidine incorporation (cpm)” value was 1,748 ± 150 cpm. In the experiment with UMR 106 cells (PTH(3-X) 300 nM), the “DNA synthesis E/C” value worked out at 3.6 ± 0.31 and the “[^3 H]-thymidine incorporation” value was 3,516 ± 297.

With “PTH (3-37): PTH fragment, N-terminus shortened by two amino acids, positions 3-37 (SEIQLMHNLGKHLNSMERVEWLRKKLQDVHNFVAL; Parathyroid hormone; UniProt P01270 34-68, looked up, fragment)”, in the experiment on UMR 106 cells (PTH(3-X) 100 nM), the “DNA synthesis E/C” value stood at 2.3 ± 0.06 and the “[^3 H]-thymidine incorporation (cpm)” value is on record as 2,161 ± 74 cpm. Besides, in the experiment with UMR 106 cells (PTH(3-X) 300 nM), the “DNA synthesis E/C” value is 4.1 ± 0.28 and the “[^3 H]-thymidine incorporation” value is reported as 3,962 ± 268.

On to “PTH (3-38): PTH fragment, N-terminus shortened by two amino acids, positions 3-38 (SEIQLMHNLGKHLNSMERVEWLRKKLQDVHNFVALG; Parathyroid hormone; UniProt P01270 34-69, looked up, fragment)”, for which, in the experiment on UMR 106 cells (PTH(3-X) 100 nM), the “DNA synthesis E/C” value was determined as 2.1 ± 0.13 and the “[^3 H]-thymidine incorporation (cpm)” value was 1,905 ± 159 cpm. In the experiment with UMR 106 cells (PTH(3-X) 300 nM), the “DNA synthesis E/C” value amounted to 3.8 ± 0.43 and the “[^3 H]-thymidine incorporation” value is listed as 3,701 ± 414.

Consider “Ser-Val-Ser-Glu-Ile-Gln-Leu-Met-His-Asn-Leu-Gly-Lys-His-Leu-Asn-Ser-Met-Glu-Arg-Val-Glu-Trp-Leu-Arg-Lys-Lys-Leu-Gln-Asp-Val-His-Asn-Phe-Val (SVSEIQLMHNLGKHLNSMERVEWLRKKLQDVHNFV) [hPTH(1-35)]”, for which, in the experiment with rats, the “Ca retention (mg per day) average value” stood at 108.6 mg per day, the “Ca retention in words” value is “higher Ca retention” and the “Ca retention % increase” value amounted to 119%. In addition, the “Mitogeneity E/C +/- SEM” value in the experiment on sterna organ cultures [1] was 3.13 +/- 0.57. The “DNA synthesis capacity in words” value in the experiment with ROS 17/2.8 cells (ROS 17/2.8 cells, compared with other fragments) is given as “more strongly increased”. For the same substance, in the experiment with ROS 17/2.8 cells, the “DNA synthesis E/C” value came to 4.1 ± 0.43 and the “[^3 H]-thymidine incorporation (cpm)” value is 2,686 ± 282 cpm. Also, in the experiment on sterna organ cultures [2], the “pMol cAMP” value was 18.2 pMol and the “Induction of cAMP formation in words” value was “decreased”. For the same substance, in experiment [3], the “Induction of cAMP formation in words” value was “decreased” and the “pMol cAMP/mg protein ± SEM” value was 82.4 ± 0.4 pMol cAMP/mg protein.

As for “Ser-Val-Ser-Glu-Ile-Gln-Leu-Met-His-Asn-Leu-Gly-Lys-His-Leu-Asn-Ser-Met-Glu-Arg-Val-Glu-Trp-Leu-Arg-Lys-Lys-Leu-Gln-Asp-Val-His-Asn-Phe-Val-Ala (SVSEIQLMHNLGKHLNSMERVEWLRKKLQDVHNFVA) [hPTH(1-36)]”, in the experiment on rats, the “Ca retention (mg per day) average value” is given as 110.5 mg per day, the “Ca retention in words” value is “higher Ca retention” and the “Ca retention % increase” value is recorded as 123%. The “Mitogeneity E/C +/- SEM” value in the experiment with sterna organ cultures [1] is recorded as 3.37 +/- 0.58. Besides, in the experiment with ROS 17/2.8 cells, the “DNA synthesis E/C” value was 3.2 ± 0.37 and the “[^3 H]-thymidine incorporation (cpm)” value is given as 2,136 ± 246 cpm. Besides, in the experiment with sterna organ cultures [2], the “pMol cAMP” value is given as 17.6 pMol and the “Induction of cAMP formation in words” value is reported as “decreased”. Further, in experiment [3], the “Induction of cAMP formation in words” value is on record as “decreased” and the “pMol cAMP/mg protein ± SEM” value is on record as 44.6 ± 1.8 pMol cAMP/mg protein.

Regarding “hPTH(1-37): known human parathyroid hormone fragment, amino acids 1-37 (WO 91/06564) (SVSEIQLMHNLGKHLNSMERVEWLRKKLQDVHNFVAL; Parathyroid hormone; UniProt P01270 32-68, looked up, fragment) [reference compound]”, in the experiment with rats, the “Ca retention (mg per day) average value” was determined as 96.0 mg per day and the “Ca retention % increase” value is 94%. In the experiment with ROS 17/2.8 cells, the “DNA synthesis E/C” value is given as 3.1 ± 0.38 and the “[^3 H]-thymidine incorporation (cpm)” value is given as 2,021 ± 251 cpm.

For “hPTH(1-38): known human parathyroid hormone fragment, amino acids 1-38, state of the art (SVSEIQLMHNLGKHLNSMERVEWLRKKLQDVHNFVALG; Parathyroid hormone; UniProt P01270 32-69, looked up, fragment) [reference compound]”, in the experiment on rats, the “Ca retention (mg per day) average value” amounted to 91.8 mg per day and the “Ca retention % increase” value came to 85%. In the experiment on sterna organ cultures [1], the “Mitogeneity E/C +/- SEM” value is 2.96 +/- 0.30.
